Data reported in US10739304B2, “Organic transistor-based system for electrophysiological monitoring of cells and method for the monitoring of the cells” (UNIVERSITA DEGLI STUDI DI CAGLIARI, priority 2015, dated 2020).

System: rat cardiomyocytes culture
Experiment: Spontaneous electrical (beating) activity of rat cardiomyocyte culture recorded with the organic transistor (OCMFET) system, pharmacological modulation
Format: cell-based
Details: 100 μM; for beating frequency modulation: spike-count on 4 min: rat cardiomyocytes culture (8 DIV) at 37° C., Verapamil added after Norepinephrine, statistics on 5 transistors, average and standard deviation, basal 129±4.6; for chemical tuning of the culture's spontaneous activity (drain current vs time): rat cardiomyocytes culture at 37° C., Norepinephrine first, then Verapamil
Excerpt: The system 100 was able to detect the occurrence of the signals (similarly to what MEA-based devices do), the beat rate and its rapid changing related to pharmacological modulations, obtained by applying both positive and negative chronotropic compounds (according to the method described in Simpson, P. Stimulation of hypertrophy of cultured neonatal rat heart cells through an alpha 1-adrenergic receptor and induction of beating through an alpha 1- and beta 1-adrenergic receptor interaction. Evidence for independent regulation of growth and beating. Circ. Res. 56, 884-894 (1985); Yonemochi, H., Saikawa, T., Takakura, T., Ito, S., Takaki, R. Effects of calcium antagonist on β-receptors of cultured cardiac myocytes isolated from neonatal rat ventricle. Circulation 81, 1401-1408 (1990)). In FIG. 13 an example of extracellular action potentials measured, with an organic transistor 10 is shown. Considering a p-type organic transistor and a first inverting stage of the readout electronics, the shape of the single signal shown in FIG. 13 is consistent with the expected current fluctuation caused by the ionic charge displacement in the early phase of the cardiac action potential. The drain current IDS fluctuation is driven by the fast movement of Na+ ions occurring at the very beginning of the intracellular action potential.
Systematic measurements by recording the spontaneous electrophysiological activity of rat cardiomyocytes (8 Days InVitro—DIV) by means of the system 100 (FIG. 14) have been performed.
All the measurements relative to the pharmacological modulation of the electrical activity were performed while maintaining the culture at constant temperature (37° C.) and the same reliable results were obtained in five recording devices simultaneously.

Row | SMILES | beating frequency modulation: spike-count on 4 min | chemical tuning of the culture's spontaneous activity (drain current vs time)
1 | COc1ccc(CCN(C)CCCC(C#N)(c2ccc(OC)c(OC)c2)C(C)C)cc1OC (stereo not shown) [Verapamil] | 15±1.9 | suppressed
2 | NC[C@H](O)c1ccc(O)c(O)c1 [Norepinephrine] | 280±28.6 | accelerated
